Columns and labels:
[1] = tested on: ischemic heart isolated from white rat; assay: Cardioprotective effect on isolated ischemic rat heart (Langendorff, 30 min global ischemia / 30 min reperfusion); conditions: 10 μM
Procedure: 100 mg/kg of sodium pentobarbital was injected in abdominal cavity of white male rats (300˜450 g, obtained form the experimental animal team of the Korea Research Institute of Chemical Technology) to anesthetize them. Then, an intravenous injection of 1000 U/kg of heparin was performed before taking out heart. Particularly, cannula(PE 240) was inserted in the trachea, and artificial respiration was tried upon the rat by using a rodent ventilator. Under that condition, aortic cannula was inserted in the aorta and heart was taken out under retrograde perfusion. The extracted heart was hung on Langendorff apparatus quickly and unnecessary tissues on heart were removed. Perfusion was induced under static pressure (85 mmHg) with 37° C. modified Krebs-Henseleit bicarbonate buffer (composition <mM/L>: 116 NaCl, 4.7 KCl, 1.1 MgSO4, 1.17 KH2PO4, 24.9 NaHCO3, 2.52 CaCl2, 8.32 Glucose, 2.0 Pyruvate) saturated with 95% O2/5% CO2. A metal cannula, to which a latex balloon filled with an ethanol-distilled water mixture (1:1 vol/vol) was linked, was inserted in left ventricle through pulmonary vein. Then, left ventricular pressure transmitted through the balloon was transduced by using pressure transducer, and amplified by using Plugsys bridge amplifier isovolumetrically. Then, the pressure was recorded in a recorder (Linearcorder mark 8 WR 3500). Thereafter, heart was stabilized for 15 minutes. Then, left ventricular end diastolic pressure (LVEDP) was given by 5 mmHg and such volume of the balloon was kept all through the experiments.
Baseline cardiac contractile function, heart rate (HR), and coronary flow (CF) were measured. Cardiac contractile function was calculated by […], yielding LVDP (left ventricular developed pressure). Double product RPP (rate-pressure product)(DP), another important parameter for indirectly assessing cardiac performance in Langendorff heart, whose cardiac output could not be measured ordinarily, was calculated by multiplying HR by LVDP. Throughout the experiment, total coronary blood flow was measured by the use of coronary flow probe (diameter: 1.0 mm) installed in aortic cannula with electromagnetic flowmeter. Temperature of heart was steadily maintained by immersing the heart at 37° C. in physiological saline solution to which 95% O2/5% CO2 was constantly supplied. After stabilization for 15 min, the hearts were pre-treated for 10 min with vehicle (0.04% DMSO) only or a compound of the present invention or the control material in the vehicle. Thereafter, cardiac contractile function, HR and CF were repeatedly measured. Global ischemia was induced by completely shutting off the perfusate for 30 min. Severity of ischemia was determined as the time to contracture (TTC, min) during global ischemia in which the first 5 mmHg increase in EDP was observed. Then, the hearts were reperfused and, 30 min later, contractile functions (LVDP, HR and CF) were repeatedly measured. After reperfusion was accomplished for 30 min, LDH (lactate dehydrogenase) was measured with a kit as a sensitive index for loss of cell viability.

[2] = tested on: ischemic myocardial injury models prepared from white rats; assay: Antiischemic activity in the anesthetized rat ischemic myocardial injury model (coronary occlusion 45 min / reperfusion 90 min); format: in vivo; conditions: 0.3 mg/kg, intravenous (femoral vein), 30 min before occlusion
Procedure: 75 mg/kg of sodium pentobarbital was injected in abdominal cavity of white male rats (350-450 g, Laboratory Animal Division, Korea Research Institute of Chemical Technology) to anesthetize them. After performing tracheotomy, artificial respiration was induced by 10 ml/kg of stroke volume and 60/min. of heart rate. Cannula was inserted in each of vena fermoralis and aorta fermoralis, through which medicines were administered and blood pressure was measured. In the meantime, since body temperature in a ischemic myocardial injury model was very important factor, directly influencing a result, the temperature of a rat was always kept at 37° C. by using a probe for measuring body temperature inserted in rectum and homeothermic blanket control unit. Mean arterial blood pressure and heart rate (HR) of the rat were measured all through the experiments. Statham P23XL pressure transducer (Grass Ins., MA., USA) was used for measuring blood pressure and ECG/RATE Coupler (Hugo Sachs Electronic, Germany) was used for measuring HR. In addition, all the changes were recorded successively by graphtec linearcorder chart recorder (Graphtec Linearcorder WR 3310, Hugo Sachs Electronic).
According to the method of Selye H, left coronary aorta was occluded as follows. Left thoracotomy was induced. That is, the chest of a rat was a little opened. The right chest of the anesthetized rat was pressurized by the middle finger of left hand, so that the heart was pushed out. The heart was fixed gently by the thumb and the index finger of the left hand. A stitch was carefully put on a part including left anterior descending coronary artery by a suture needle with operating thread (5-0 silk ligature), and the heart was quickly positioned again in thoracic cavity. Then, both ends of operating thread were exposed outside. Both ends of operating thread were passed through PE tube (PE100, 2.5 cm) and left for 20 minutes for stabilization. A vehicle or a medicine was administered through the cannula inserted in femoral vein, which was left for 30 minutes in order for the medicine to work thoroughly. BMS-180448 was used for a control group and the dosage of each test medicine and a control medicine was 0.3 mg/kg each. […]
The coronary artery was reoccluded according to the above method and 2 ml of 1% Evans blue solution was administered by intravenous injection. […] The surface of each slice was inputted in a computer by using Hi-scope, a compact micro vision system, and Image pro plus program, from which both normal blood flow tissue area stained by blue and non-stained area on each slice were measured. The ratio of non-stained area to the gross area of each slice was calculated, by which the weight of each slice was multiplied to calculate AAR (area at risk) of each slice. […]

Compound: COc1ccc2oc(=S)n([C@H]3c4cc([N+](=O)[O-])ccc4O[C@@](C)(C(OC)OC)[C@@H]3O)c2c1 [Example 10, (2R,3R,4S)-6-nitro-3,4-dihydro-3-hydroxy-2-dimethoxymethyl-2-methyl-4-(5-methoxy-2-thioxobenzoxazol-3-yl)-2H-1-benzopyran]
- LDH (concentration of lactate dehydogenase) ([1]; after 30 min reperfusion): 17.3 unit/g
- EDP (left ventricular end diastolic pressure) ([1]; after reperfusion, baseline set at 5 mmHg): 36.7 mmHg
- TTC (time to induce contraction / time to contracture) ([1]; during 30 min global ischemia, first 5 mmHg increase in EDP): 24.4 min
- LVDP × HR (left ventricular developed pressure × heart rate) ([1]; reperfusion DP as % of pre-treatment DP, 30 min after reperfusion): 54.2%
- IZ/AAR(%) myocardial infarction size to area at risk [2]: 46.6%

Source: US7420060B2, “Benzopyran derivatives substituted with a thioxobenzoxazole derivative, pharmaceutically acceptable salts thereof, their preparations and pharmaceutical compositions containing them” (Schaeffler KG, priority 2003, dated 2008)
